Assay results from patent US20240197823A1, “CATIONIC ANTIMICROBIAL PEPTIDES AND USES THEREOF” (priority 2021, published 2024).
In brackets after ≈: the same amount, converted by molar mass. Where two headings read alike, the source gives them in different places. Positions of bridges follow the written chain, without caps; N, C: chain ends. Non-standard residues stand in square brackets, D forms with d. Residues, ends and D or L forms follow the SMILES beside them. No end group written: not given here. *: point of attachment. Heptanoyl(5-Me) = CCC(C)CCCC(=O)*; Dab = NCC[C@H](N)C(=O)O

Columns and labels:
[1] = test system: MDR clinical strains of ESKAPE pathogens and E. coli provided by the CDC (AR isolates panel); test: Advanced testing, MIC against CDC AR isolates panel; assay type: cell-based; conditions: colistin-resistant strains
Procedure: (§1) Bacteria. Bacterial clinical isolates, used for initial screening and in previous studies [Greber K E et al., 2017], were anonymously provided by the clinical microbiology laboratory of the University of Pittsburgh medical Center. The panel used for secondary screening was from CDC (Table 4), with resistance profiles data. Bacteria are stored in lock-secured −80° C. freezer and typically retrieved by obtaining single colonies on agar plates prior for subsequent liquid broth cultures. Suspensions of test bacteria were prepared from log phase of growth by diluting overnight cultures at 1:100 with fresh cation-adjusted MHB (MHB2, Millipore Sigma, USA) and incubating for additional 3-4 hours. Bacteria were spun at 3000×g for 10 minutes and the pellet resuspended in test condition media (Millipore Sigma, USA) to determine bacterial turbidity using a Den-1B densitometer (Grant Instruments, USA) at 0.5 McFarland (unit of bacterial density) corresponding to […].
(§2) Antibacterial assays. To examine antibacterial activity, this study used minor modifications of a standard growth inhibition assay endorsed by the Clinical and Laboratory Standards Institute (CLSI), as previously described [Greber K E et al., 2017]. Bacteria were incubated with each of the indicated peptides in MHB2. The bacterial cells were kept in an incubator for 18 hours at 37° C., which is linked to a robotic system that feeds a plate reader every hour with one of 8×96-well plates. This set-up allows the collection of growth kinetic data at A 570 (absorbance at 570 nm) to examine growth inhibition in real time (BioTek Instruments, USA). […] To assess bactericidal properties of the peptide, the assay was modified by using 15% fetal bovine serum (FBS, for a more physiologically relevant test condition) mixed with 25% MHB2 and 60% PBS. Bacterial cells (colony forming unit/mL or CFU/mL) were enumerated after incubating treated bacteria for 3 hours and plating serially diluted samples on broth agar medium at 37° C. overnight. […] For killing kinetics, we slightly modified the bactericidal assay to examine bacterial killing at the MBC (or 2×MBC) as a function of time for up to 3 hours. Data were analyzed using GraphPad Prism software.

[2] = test system: P. aeruginosa; test: microbe, parasite or virus in culture
Procedure: as §1, §2

[3] = Mouse toxicity, maximum tolerated dose; assay type: in vivo, CD-1 mice
Procedure: Mouse toxicity. For all animal experiments, the protocol #18071776 approved by the Institutional Animal Care and Use Committee (IACUC) of the University of Pittsburgh was used, which is consistent with the NIH guide for the care and use of laboratory animals. In a preliminary (pilot) experiment, female CD-1 mice (3 per group) weighing about 20 g were injected different doses of peptides up to 45 mpk via a lateral tail vein (IV) to determine an MTD (dose that results in no apparent morbidity or mortality). To confirm the MTD determined in the pilot study, CD-1 mice (7 per group) were randomized to receive a dose based on the preliminary MTD (IV) or PBS (100 μL). The animals were monitored for up to 7 days for morbidity and survival.

[4] = test system: A. baumannii; test: microbe, parasite or virus in culture; conditions: Acinetobacter baumannii
Procedure: as §1, §2

[5] = test system: E. coli; test: microbe, parasite or virus in culture; conditions: Escherichia coli, MHB2
Procedure: as §1, §2

[6] = test system: E. Faecium; test: MIC growth inhibition assay in MHB2; assay type: cell-based, Enterococcus faecium; conditions: MHB2
Procedure: as §1, §2

[7] = test system: MDR panel of gram-negative (GNB) and -positive (GPB) bacterial isolates classified as ESKAPE pathogens
Procedure: as §1
Antibacterial assays. To examine antibacterial activity, this study used minor modifications of a standard growth inhibition assay endorsed by the Clinical and Laboratory Standards Institute (CLSI), as previously described [Greber K E et al., 2017]. Bacteria were incubated with each of the indicated peptides in MHB2. The bacterial cells were kept in an incubator for 18 hours at 37° C., which is linked to a robotic system that feeds a plate reader every hour with one of 8×96-well plates. This set-up allows the collection of growth kinetic data at A 570 (absorbance at 570 nm) to examine growth inhibition in real time (BioTek Instruments, USA). […] To assess bactericidal properties of the peptide, the assay was modified by using 15% fetal bovine serum (FBS, for a more physiologically relevant test condition) mixed with 25% MHB2 and 60% PBS. Bacterial cells (colony forming unit/mL or CFU/mL) were enumerated after incubating treated bacteria for 3 hours and plating serially diluted samples on broth agar medium at 37° C. overnight. […] Data were analyzed using GraphPad Prism software.

[8] = test system: Enterobacter spp; test: MIC growth inhibition assay in MHB2; assay type: cell-based, Enterobacter spp: EA (aerogenes), EC (cloacae); conditions: Enterobacter, CDC, MHB2
Procedure: as §1, §2

[9] = test system: K. pneumoniae; test: MIC growth inhibition assay in MHB2; assay type: cell-based, klebsiella pneumoniae
Procedure: as §1, §2

[10] = test system: S. aureus; test: MIC growth inhibition assay in MHB2; assay type: cell-based, Staphylococcus aureus; conditions: MHB2
Procedure: as §1, §2

Compound: RWVRRVRRWVRRVRRVVRRW [E70]
- cross-resistance with colistin [1]: no cross-resistance at all

Compound: RVWRRVRRVWRRVRRVWRRV [E69]
- MIC [2]: 2 µM

Compound: RRVWRWVRRVWRWVRR [E35]
- morbidity and mortality ([3]; 7 mice, systemically at 30 mpk): no apparent morbidity and mortality
- maximum tolerated dose, MTD ([3]; CD-1 mice, tail vein (IV)): 30 mpk

Compound: CCC(C)CCCC(=O)N[C@@H](CCN)C(=O)N[C@H](C(=O)N[C@@H](CCN)C(=O)N[C@H]1CCNC(=O)[C@H]([C@@H](C)O)NC(=O)[C@H](CCN)NC(=O)[C@H](CCN)NC(=O)[C@H](CC(C)C)NC(=O)[C@@H](CC(C)C)NC(=O)[C@H](CCN)NC1=O)[C@@H](C)O (stereo partly drawn) [Colistin, colistin, reference compound] ({Heptanoyl(5-Me)}-[Dab]T[Dab][Dab][Dab][dL]L[Dab][Dab]T; lactam 4-C)
- MIC ([4]; CDC AR isolate AB288 (colistin resistance not confirmed)): 1 µM (≈ 1.16 µg/mL)
- MIC ([4]; CDC AR isolate AB300 (colistin resistance not confirmed)): 1 µM (≈ 1.16 µg/mL)
- MIC ([4]; CDC AR isolate AB301 (colistin resistance not confirmed)): 1 µM (≈ 1.16 µg/mL)
- MIC ([4]; CDC AR isolate AB303 (colistin resistance not confirmed)): 0.5 µM (≈ 0.578 µg/mL)
- MIC ([4]; strain AB273, CDC, MHB2): 0.5 µM (≈ 0.578 µg/mL)
- MIC ([4]; strain AB274, CDC, MHB2): 0.25 µM (≈ 0.289 µg/mL)
- MIC ([4]; strain AB275 (first line r9), CDC, MHB2): 0.25 µM (≈ 0.289 µg/mL)
- MIC ([4]; strain AB275 (second line r10), CDC, MHB2): 0.5 µM (≈ 0.578 µg/mL)
- MIC ([2]; Pseudomonas aeruginosa, strain PA216, CDC, MHB2): 1 µM (≈ 1.16 µg/mL)
- MIC ([2]; Pseudomonas aeruginosa, strain PA229, CDC, MHB2): > 16 µM
- MIC ([2]; Pseudomonas aeruginosa, strain PA230, CDC, MHB2): 1 µM (≈ 1.16 µg/mL)
- MIC ([2]; Pseudomonas aeruginosa, strain PA231, CDC, MHB2): 1 µM (≈ 1.16 µg/mL)
- MIC ([5]; strain Eco541, CDC): 1 µM (≈ 1.16 µg/mL)
- MIC ([5]; strain Eco543, CDC): 8 µM (≈ 9.24 µg/mL)
- MIC ([5]; strain Eco546, CDC): 0.25 µM (≈ 0.289 µg/mL)
- MIC ([5]; strain Eco549, CDC): 1 µM (≈ 1.16 µg/mL)
- MIC ([6]; Enterococcus faecium, strain EF673, CDC): > 16 µM
- MIC ([6]; strain EF500, CDC): >16 µM
- MIC ([6]; strain EF671, CDC): >16 µM
- MIC ([6]; strain EF672, CDC): >16 µM
- mean MIC ([7]; GNB and GPB of the initial MDR panel, MHB2): lowest mean MIC
- activity against the GPB strains ([7]; GPB strains of the initial MDR panel (Table 5)): inactive
- MIC ([8]; strain EA62 (aerogenes)): 2 µM (≈ 2.31 µg/mL)
- MIC ([8]; strain EA547 (aerogenes)): 0.25 µM (≈ 0.289 µg/mL)
- MIC ([8]; strain EC544 (cloacae)): 4 µM (≈ 4.62 µg/mL)
- MIC ([8]; strain EC545 (cloacae)): 2 µM (≈ 2.31 µg/mL)
- MIC ([9]; Klebsiella pneumoniae, colistin-resistant CDC AR isolate KP46, read-out: MIC): 4 µM (≈ 4.62 µg/mL)
- MIC ([9]; Klebsiella pneumoniae, colistin-resistant CDC AR isolate KP87, read-out: MIC): > 16 µM
- MIC ([9]; Klebsiella pneumoniae, colistin-resistant CDC AR isolate KP125, read-out: MIC): 8 µM (≈ 9.24 µg/mL)
- MIC ([9]; Klebsiella pneumoniae, colistin-resistant CDC AR isolate KP507, read-out: MIC): 16 µM (≈ 18.5 µg/mL)
- MIC ([9]; Klebsiella pneumoniae, colistin-resistant CDC AR isolate KP1010, read-out: MIC): 16 µM (≈ 18.5 µg/mL)
- MIC ([9]; Klebsiella pneumoniae, colistin-resistant CDC AR isolate KP1041, read-out: MIC): > 16 µM
- MIC ([9]; Klebsiella pneumoniae, colistin-resistant CDC AR isolate KP1045, read-out: MIC): > 16 µM
- MIC ([9]; Klebsiella pneumoniae, strain KP542, CDC, MHB2, read-out: MIC): > 16 µM
- MIC ([9]; Klebsiella pneumoniae, strain KP548, CDC, MHB2, read-out: MIC): 0.25 µM (≈ 0.289 µg/mL)
- MIC ([9]; Klebsiella pneumoniae, strain KP550, CDC, MHB2, read-out: MIC): 0.25 µM (≈ 0.289 µg/mL)
- MIC ([9]; Klebsiella pneumoniae, strain KP552, CDC, MHB2, read-out: MIC): 0.25 µM (≈ 0.289 µg/mL)
- MIC ([9]; strain KPA5, initial MDR panel (Table 5)): colistin-resistant phenotype
- MIC ([10]; Staphylococcus aureus, strain SA461, CDC): > 16 µM
- MIC ([10]; strain SA462, CDC): >16 µM
- MIC ([10]; strain SA463, CDC): >16 µM
- MIC ([10]; strain SA561, CDC): >16 µM
